# Reference: PubChem BioAssay (NCI)
#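 Compound exposure: 48 hours, 5 concentrations, 96-well plates. TGI is the concentration that stops growth completely.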
# Key:
# Assay in all cases: DTP human tumour cell line panel, 48 h
# 786-0 renal = tested on: 786-0 renal
# A498 renal = tested on: A498 renal
# A549 NSCLC = tested on: A549 NSCLC
# ACHN renal = tested on: ACHN renal
# BT-549 breast = tested on: BT-549 breast
# CAKI-1 renal = tested on: CAKI-1 renal
# CCRF-CEM leukemia = tested on: CCRF-CEM leukemia
# COLO 205 colon = tested on: COLO 205 colon
# DU-145 prostate = tested on: DU-145 prostate
# EKVX NSCLC = tested on: EKVX NSCLC
# HCC-2998 colon = tested on: HCC-2998 colon
# HCT-116 colon = tested on: HCT-116 colon
# HCT-15 colon = tested on: HCT-15 colon
# HL-60(TB) leukemia = tested on: HL-60(TB) leukemia
# HOP-62 NSCLC = tested on: HOP-62 NSCLC
# HOP-92 NSCLC = tested on: HOP-92 NSCLC
# HS 578T breast = tested on: HS 578T breast
# HT29 colon = tested on: HT29 colon
# IGROV1 ovarian = tested on: IGROV1 ovarian
# K-562 leukemia = tested on: K-562 leukemia
# KM12 colon = tested on: KM12 colon
# M14 melanoma = tested on: M14 melanoma
# MALME-3M melanoma = tested on: MALME-3M melanoma
# MCF7 breast = tested on: MCF7 breast
# MDA-MB-231 breast = tested on: MDA-MB-231 breast
# MDA-MB-435 = tested on: MDA-MB-435
# MDA-N = tested on: MDA-N
# MOLT-4 leukemia = tested on: MOLT-4 leukemia
# NCI-H226 lung = tested on: NCI-H226 lung
# NCI-H23 lung = tested on: NCI-H23 lung
# NCI-H460 lung = tested on: NCI-H460 lung
# NCI-H522 lung = tested on: NCI-H522 lung
# NCI/ADR-RES ovarian = tested on: NCI/ADR-RES ovarian
# OVCAR-3 ovarian = tested on: OVCAR-3 ovarian
# OVCAR-4 ovarian = tested on: OVCAR-4 ovarian
# OVCAR-5 ovarian = tested on: OVCAR-5 ovarian
# OVCAR-8 ovarian = tested on: OVCAR-8 ovarian
# PC-3 prostate = tested on: PC-3 prostate
# RPMI-8226 leukemia = tested on: RPMI-8226 leukemia
# RXF 393 renal = tested on: RXF 393 renal
# SF-268 CNS = tested on: SF-268 CNS
# SF-295 CNS = tested on: SF-295 CNS
# SF-539 CNS = tested on: SF-539 CNS
# SK-MEL-2 melanoma = tested on: SK-MEL-2 melanoma
# SK-MEL-28 melanoma = tested on: SK-MEL-28 melanoma
# SK-MEL-5 melanoma = tested on: SK-MEL-5 melanoma
# SK-OV-3 ovarian = tested on: SK-OV-3 ovarian
# SN12C renal = tested on: SN12C renal
# SNB-19 CNS = tested on: SNB-19 CNS
# SNB-75 CNS = tested on: SNB-75 CNS
# SR leukemia = tested on: SR leukemia
# SW-620 colon = tested on: SW-620 colon
# T-47D breast = tested on: T-47D breast
# TK-10 renal = tested on: TK-10 renal
# U251 CNS = tested on: U251 CNS
# UACC-257 melanoma = tested on: UACC-257 melanoma
# UACC-62 melanoma = tested on: UACC-62 melanoma
# UO-31 renal = tested on: UO-31 renal
# LOX IMVI melanoma = tested on: LOX IMVI melanoma
smiles,measurement,setting,value
COc1ccc(N2CCOCC2)cc1,TGI,786-0 renal,> 100 µM
same,TGI,A498 renal,> 100 µM
same,TGI,A549 NSCLC,> 100 µM
same,TGI,ACHN renal,> 100 µM
same,TGI,BT-549 breast,> 100 µM
same,TGI,CAKI-1 renal,> 100 µM
same,TGI,CCRF-CEM leukemia,> 100 µM
same,TGI,COLO 205 colon,> 100 µM
same,TGI,DU-145 prostate,> 100 µM
same,TGI,EKVX NSCLC,> 100 µM
same,TGI,HCC-2998 colon,> 100 µM
same,TGI,HCT-116 colon,> 100 µM
same,TGI,HCT-15 colon,> 100 µM
same,TGI,HL-60(TB) leukemia,> 100 µM
same,TGI,HOP-62 NSCLC,> 100 µM
same,TGI,HOP-92 NSCLC,> 100 µM
same,TGI,HS 578T breast,> 100 µM
same,TGI,HT29 colon,> 100 µM
same,TGI,IGROV1 ovarian,> 100 µM
same,TGI,K-562 leukemia,> 100 µM
same,TGI,KM12 colon,> 100 µM
same,TGI,M14 melanoma,> 100 µM
same,TGI,MALME-3M melanoma,> 100 µM
same,TGI,MCF7 breast,> 100 µM
same,TGI,MDA-MB-231 breast,> 100 µM
same,TGI,MDA-MB-435,> 100 µM
same,TGI,MDA-N,> 100 µM
same,TGI,MOLT-4 leukemia,> 100 µM
same,TGI,NCI-H226 lung,> 100 µM
same,TGI,NCI-H23 lung,> 100 µM
same,TGI,NCI-H460 lung,> 100 µM
same,TGI,NCI-H522 lung,> 100 µM
same,TGI,NCI/ADR-RES ovarian,> 100 µM
same,TGI,OVCAR-3 ovarian,> 100 µM
same,TGI,OVCAR-4 ovarian,> 100 µM
same,TGI,OVCAR-5 ovarian,> 100 µM
same,TGI,OVCAR-8 ovarian,> 100 µM
same,TGI,PC-3 prostate,> 100 µM
same,TGI,RPMI-8226 leukemia,> 100 µM
same,TGI,RXF 393 renal,> 100 µM
same,TGI,SF-268 CNS,> 100 µM
same,TGI,SF-295 CNS,> 100 µM
same,TGI,SF-539 CNS,> 100 µM
same,TGI,SK-MEL-2 melanoma,> 100 µM
same,TGI,SK-MEL-28 melanoma,> 100 µM
same,TGI,SK-MEL-5 melanoma,> 100 µM
same,TGI,SK-OV-3 ovarian,> 100 µM
same,TGI,SN12C renal,> 100 µM
same,TGI,SNB-19 CNS,> 100 µM
same,TGI,SNB-75 CNS,> 100 µM
same,TGI,SR leukemia,> 100 µM
same,TGI,SW-620 colon,> 100 µM
same,TGI,T-47D breast,> 100 µM
same,TGI,TK-10 renal,> 100 µM
same,TGI,U251 CNS,> 100 µM
same,TGI,UACC-257 melanoma,> 100 µM
same,TGI,UACC-62 melanoma,> 100 µM
same,TGI,UO-31 renal,> 100 µM
O=C(O)c1c[nH]c2cc(OCc3ccccc3)ccc2c1=O,TGI,786-0 renal,32.5 µM
same,TGI,A498 renal,31.4 µM
same,TGI,A549 NSCLC,35.5 µM
same,TGI,ACHN renal,32.7 µM
same,TGI,BT-549 breast,32.5 µM
same,TGI,CAKI-1 renal,40.1 µM
same,TGI,CCRF-CEM leukemia,53.2 µM
same,TGI,COLO 205 colon,34.8 µM
same,TGI,DU-145 prostate,33.3 µM
same,TGI,EKVX NSCLC,38.7 µM
same,TGI,HCC-2998 colon,32.2 µM
same,TGI,HCT-116 colon,31 µM
same,TGI,HCT-15 colon,36.1 µM
same,TGI,HL-60(TB) leukemia,2.32 µM
same,TGI,HOP-62 NSCLC,35.9 µM
same,TGI,HOP-92 NSCLC,35.1 µM
same,TGI,HS 578T breast,45.2 µM
same,TGI,HT29 colon,33.3 µM
same,TGI,IGROV1 ovarian,32.4 µM
same,TGI,K-562 leukemia,54.3 µM
same,TGI,KM12 colon,33.8 µM
same,TGI,M14 melanoma,31.8 µM
same,TGI,MALME-3M melanoma,31.7 µM
same,TGI,MCF7 breast,39.8 µM
same,TGI,MDA-MB-231 breast,48.6 µM
same,TGI,MDA-MB-435,30 µM
same,TGI,MDA-N,30.9 µM
same,TGI,MOLT-4 leukemia,84 µM
same,TGI,NCI-H226 lung,33.8 µM
same,TGI,NCI-H23 lung,33.3 µM
same,TGI,NCI-H460 lung,34.5 µM
same,TGI,NCI-H522 lung,30.8 µM
same,TGI,NCI/ADR-RES ovarian,37.8 µM
same,TGI,OVCAR-3 ovarian,35.3 µM
same,TGI,OVCAR-4 ovarian,31.1 µM
same,TGI,OVCAR-5 ovarian,42.1 µM
same,TGI,OVCAR-8 ovarian,35.3 µM
same,TGI,PC-3 prostate,31.2 µM
same,TGI,RPMI-8226 leukemia,64.9 µM
same,TGI,RXF 393 renal,38.2 µM
same,TGI,SF-268 CNS,29.4 µM
same,TGI,SF-295 CNS,34.4 µM
same,TGI,SF-539 CNS,36.8 µM
same,TGI,SK-MEL-2 melanoma,33.3 µM
same,TGI,SK-MEL-28 melanoma,30.1 µM
same,TGI,SK-MEL-5 melanoma,32 µM
same,TGI,SK-OV-3 ovarian,36.6 µM
same,TGI,SN12C renal,32.2 µM
same,TGI,SNB-19 CNS,32.4 µM
same,TGI,SNB-75 CNS,31.4 µM
same,TGI,SR leukemia,53.8 µM
same,TGI,SW-620 colon,40.5 µM
same,TGI,T-47D breast,38.8 µM
same,TGI,TK-10 renal,39.6 µM
same,TGI,U251 CNS,36.1 µM
same,TGI,UACC-257 melanoma,50.7 µM
same,TGI,UACC-62 melanoma,30.5 µM
same,TGI,UO-31 renal,31.1 µM
COc1nc2ncc([C@@H](O)[C@H](O)CO)nc2c(=O)n1C,TGI,786-0 renal,> 100 µM
same,TGI,A498 renal,> 100 µM
same,TGI,A549 NSCLC,> 100 µM
same,TGI,ACHN renal,> 100 µM
same,TGI,BT-549 breast,> 100 µM
same,TGI,CAKI-1 renal,> 100 µM
same,TGI,CCRF-CEM leukemia,> 100 µM
same,TGI,COLO 205 colon,> 100 µM
same,TGI,DU-145 prostate,> 100 µM
same,TGI,EKVX NSCLC,> 100 µM
same,TGI,HCT-116 colon,> 100 µM
same,TGI,HCT-15 colon,> 100 µM
same,TGI,HL-60(TB) leukemia,> 100 µM
same,TGI,HOP-62 NSCLC,> 100 µM
same,TGI,HOP-92 NSCLC,> 100 µM
same,TGI,HS 578T breast,> 100 µM
same,TGI,HT29 colon,> 100 µM
same,TGI,IGROV1 ovarian,> 100 µM
same,TGI,K-562 leukemia,> 100 µM
same,TGI,KM12 colon,> 100 µM
same,TGI,LOX IMVI melanoma,> 100 µM
same,TGI,M14 melanoma,> 100 µM
same,TGI,MALME-3M melanoma,> 100 µM
same,TGI,MCF7 breast,> 100 µM
same,TGI,MDA-MB-231 breast,> 100 µM
same,TGI,MDA-MB-435,> 100 µM
same,TGI,MDA-N,> 100 µM
same,TGI,MOLT-4 leukemia,> 100 µM
same,TGI,NCI-H226 lung,> 100 µM
same,TGI,NCI-H460 lung,> 100 µM
same,TGI,NCI-H522 lung,> 100 µM
same,TGI,NCI/ADR-RES ovarian,> 100 µM
same,TGI,OVCAR-3 ovarian,> 100 µM
same,TGI,OVCAR-4 ovarian,> 100 µM
same,TGI,OVCAR-5 ovarian,> 100 µM
same,TGI,OVCAR-8 ovarian,> 100 µM
same,TGI,PC-3 prostate,> 100 µM
same,TGI,RPMI-8226 leukemia,> 100 µM
same,TGI,RXF 393 renal,> 100 µM
same,TGI,SF-268 CNS,> 100 µM
same,TGI,SF-295 CNS,> 100 µM
same,TGI,SF-539 CNS,> 100 µM
same,TGI,SK-MEL-2 melanoma,> 100 µM
same,TGI,SK-MEL-28 melanoma,> 100 µM
same,TGI,SK-MEL-5 melanoma,> 100 µM
same,TGI,SK-OV-3 ovarian,> 100 µM
same,TGI,SN12C renal,> 100 µM
same,TGI,SNB-19 CNS,> 100 µM
same,TGI,SNB-75 CNS,> 100 µM
same,TGI,SR leukemia,> 100 µM
same,TGI,SW-620 colon,> 100 µM
same,TGI,T-47D breast,> 100 µM
same,TGI,TK-10 renal,> 100 µM
same,TGI,U251 CNS,> 100 µM
same,TGI,UACC-257 melanoma,> 100 µM
same,TGI,UACC-62 melanoma,> 100 µM
same,TGI,UO-31 renal,> 100 µM
